Test results from patent US20220324835A1 (Nurix Therapeutics, Inc., priority 2018, published 2022).

Experiments:
Cbl-b (residues 36-427) = Cbl-b (residues 36-427) (Homo sapiens, UniProt Q13191); assay: Cbl-b binding assay (SPR, Biacore T200); conditions: 20° C., 1:1 binding model
Outline: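 NeutrAvidin capture chip, 20° C; 50 s injections at 50 μl/min, 90-180 s dissociation; 0.3 M NaCl regeneration. Asterisked column: 50 mM NaCl buffer and 30 nM Src kinase in place of 100 mM NaCl and 60 nM Src kinase. 1:1 fit.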

T-cell [1] = assay: IL-2 secretion from T-cells stimulated with anti-CD3 antibody alone (Biological Example 2); assay type: cell-based, human; conditions: T-cell, fold change over baseline, primary human total T-cells, read-out: IL-2 secretion Anti-CD3 stimulation; for fold induction at 1 µM: 1 μM Cbl-b inhibitor; for fold induction at 8 µM: 8 μM Cbl-b inhibitor
T-cell [2] = assay: CD25 cell surface staining on T-cells co-stimulated with anti-CD3 and anti-CD28 antibody (Biological Example 2); assay type: cell-based, human; conditions: Homo sapiens, T-cell, fold change over baseline, primary human total T-cells, read-out: CD25 staining Anti-CD3/Anti-CD28 stimulation; for fold induction at 0.3 µM: 0.3 μM Cbl-b inhibitor; for fold induction at 1 µM: 1 μM Cbl-b inhibitor; for fold induction at 4 µM: 4 μM Cbl-b inhibitor
Outline: (§1)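 Values are fold-change over baseline: readings (IL-2 release, CD25 staining) from inhibitor-treated T-cells divided against untreated cells […]. No detailed procedure stated.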

T-cell [3] = assay: CD25 cell surface staining on T-cells stimulated with anti-CD3 antibody alone (Biological Example 2); assay type: cell-based, human; conditions: T-cell, fold change over baseline, primary human total T-cells, read-out: CD25 staining Anti-CD3 stimulation; for fold induction at 1 µM: 1 μM Cbl-b inhibitor; for fold induction at 8 µM: 8 μM Cbl-b inhibitor
T-cell [4] = assay: IL-2 secretion from T-cells co-stimulated with anti-CD3 and anti-CD28 antibody (Biological Example 2); assay type: cell-based, human; conditions: Homo sapiens, T-cell, fold change over baseline, primary human total T-cells, read-out: IL-2 secretion Anti-CD3/Anti-CD28 stimulation; for fold induction at 0.3 µM: 0.3 μM Cbl-b inhibitor; for fold induction at 1 µM: 1 μM Cbl-b inhibitor; for fold induction at 4 µM: 4 μM Cbl-b inhibitor
Outline: as §1

Cbl-b [5] = molecular target: T1, Cbl-b (Homo sapiens, UniProt Q13191); assay: Cbl-b activity assay (Cbl-b inhibition assay), TR-FRET of Cbl-b interaction with UbcH5B-Ub; assay type: biochemical
Outline: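 Compound-treated Cbl-b was incubated 1.5 h with Src kinase (60 nM final; 30 nM for asterisked values, which also used 50 mM instead of 100 mM NaCl), 1 mM ATP and 5 mM MgCl2. Binding to fluorescent Ub-loaded UbcH5B (C85K mutant) was then read by TR-FRET after 1 h more.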

Cbl-b [6] = molecular target: T1, Cbl-b; assay: Cbl-b inhibition assay (Cbl-b activity assay, FRET, Biological Example 1; 100 mM NaCl, 60 nM Src kinase); assay type: biochemical; conditions: upper bound stated in text lists; read-out: IC50 values in the Cbl-b inhibition assay of Biological Example 1
Outline: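 Binding-based Cbl-b activity assay. Src-phosphorylated, N-terminally biotin-Avi-tagged Cbl-b recruits labelled UbcH5B-Ub, and proximity to streptavidin-terbium yields FRET.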

[7] = assay buffer with 100 mM NaCl, 60 nM Src kinase, read-out: Cbl-b activity IC50

Cbl-b (residues 36-427), sequence (Q13191 36-427): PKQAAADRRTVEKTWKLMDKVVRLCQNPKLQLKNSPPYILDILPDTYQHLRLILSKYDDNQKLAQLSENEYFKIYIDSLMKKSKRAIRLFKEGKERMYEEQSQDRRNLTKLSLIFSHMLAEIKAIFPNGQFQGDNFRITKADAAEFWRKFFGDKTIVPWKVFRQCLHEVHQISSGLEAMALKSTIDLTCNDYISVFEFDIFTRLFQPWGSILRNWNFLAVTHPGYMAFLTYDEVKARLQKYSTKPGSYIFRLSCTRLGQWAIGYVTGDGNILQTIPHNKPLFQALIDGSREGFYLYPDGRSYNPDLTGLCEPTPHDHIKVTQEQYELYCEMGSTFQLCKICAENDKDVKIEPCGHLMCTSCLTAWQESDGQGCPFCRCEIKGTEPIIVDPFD
T1 sequence (Q13191 36-427): as above

| SMILES | Kd (Cbl-b (residues 36-427)) | fold induction at 1 µM (T-cell [1]) | fold induction at 8 µM (T-cell [1]) | fold induction at 0.3 µM (T-cell [2]) | fold induction at 1 µM (T-cell [2]) | fold induction at 4 µM (T-cell [2]) | fold induction at 1 µM (T-cell [3]) | fold induction at 8 µM (T-cell [3]) | fold induction at 0.3 µM (T-cell [4]) | fold induction at 1 µM (T-cell [4]) | fold induction at 4 µM (T-cell [4]) | IC50 (Cbl-b [5]; [7]) | IC50 (Cbl-b [6]) | IC50 (Cbl-b [5]; * assay buffer containing 50 mM NaCl instead of 100 mM NaCl and 30 nM Src kinase instead of 60 nM, read-out: Cbl-b activity IC50 (μM)*) |
| --- | --- | --- | --- | --- | --- | --- | --- | --- | --- | --- | --- | --- | --- | --- |
| C[C@H](Cc1nncn1C)c1cc(N[C@H]2CCOC2)nc(N2Cc3c(cccc3C(F)(F)F)C2=O)c1 (stereo in doubt) [Compound 361, 2-(4-((R)-1-(4-methyl-4H-1,2,4-triazol-3-yl)propan-2-yl)-6-((R)-THF-3-ylamino)pyridin-2-yl)-4-(trifluoromethyl)isoindolin-1-one] | 0.301 to 1 µM | 0.051 to 0.1 | 0.151 to 0.2 | < 1 | 1.01 to 1.3 | 1.01 to 1.3 | 0.601 to 0.8 | 0.801 to 1 | 1.01 to 2.5 | 1.01 to 2.5 | 1.01 to 2.5 | 0.301 to 1 µM |  |  |
| C[C@H](Sc1nncn1C)c1cccc(NC(=O)c2cc3cc(OCc4ccn[nH]4)ccc3cn2)c1 [Compound 307, (S)-6-((1H-pyrazol-5-yl)methoxy)-N-(3-(1-((4-methyl-4H-1,2,4-triazol-3-yl)thio)ethyl)phenyl)isoquinoline-3-carboxamide] | 0.301 to 1 µM | 0.051 to 0.1 | 0.101 to 0.15 | < 1 | < 1 | 1.01 to 1.3 | < 0.6 | < 0.6 | 1.01 to 2.5 | 1.01 to 2.5 | 2.51 to 5 | 0.1 to 0.3 µM |  |  |
| Cc1ccc(C(=O)Nc2cccc([C@@H](C)Cc3nccn3C)c2)nc1C1CC1 [Compound 331] | 1 to 3 µM | < 0.05 | 0.051 to 0.1 | < 1 | < 1 | 1.01 to 1.3 | < 0.6 | 0.601 to 0.8 | 1.01 to 2.5 | 1.01 to 2.5 | 1.01 to 2.5 | 0.301 to 1 µM |  |  |
| C[C@H](Cc1nncn1C)c1cccc(NC(=O)c2[nH]nc3c2CCCC3)c1 [Compound 327, (R)-N-(3-(1-(4-Methyl-4H-1,2,4-triazol-3-yl)propan-2-yl)phenyl)-4,5,6,7-tetrahydro-2H-indazole-3-carboxamide] | 1 to 3 µM | 0.051 to 0.1 | 0.051 to 0.1 | 1.01 to 1.3 | 1.01 to 1.3 | 1.01 to 1.3 | 0.601 to 0.8 | 0.801 to 1 | 1.01 to 2.5 | 1.01 to 2.5 | 1.01 to 2.5 | 0.301 to 1 µM |  |  |
| CNC(=O)COc1ccc2cnc(C(=O)Nc3cccc([C@H](C)Sc4nncn4C)c3)cc2c1 [Compound 306a, (S)-N-(3-(1-(4-methyl-4H-1,2,4-triazol-3-ylthio)ethyl)phenyl)-6-(2-(methylamino)-2-oxoethoxy)isoquinoline-3-carboxamide] | 0.1 to 0.3 µM | < 0.05 | < 0.05 | 1.01 to 1.3 | 1.01 to 1.3 | 1.01 to 1.3 | < 0.6 | 0.801 to 1 | < 1 | 1.01 to 2.5 | 1.01 to 2.5 | 0.1 to 0.3 µM |  |  |
| C[C@H](O)CNC(=O)c1ccnc(C(=O)Nc2cccc([C@H](C)Sc3nncn3C)c2)c1 [Compound 157, N^4-((S)-2-hydroxypropyl)-N^2-(3-((S)-1-((4-methyl-4H-1,2,4-triazol-3-yl)thio)ethyl)phenyl)pyridine-2,4-dicarboxamide] | 3 to 10 µM |  |  |  |  |  |  |  |  |  |  | 3 to 10 µM | ≤ 10 µM |  |
| COc1nc(C(=O)Nc2cc([C@H](C)Sc3nncn3C)ccn2)ccc1Cl [Compound 125, (S)-5-chloro-6-methoxy-N-(4-(1-((4-methyl-4H-1,2,4-triazol-3-yl)thio)ethyl)pyridin-2-yl)picolinamide] | 3 to 10 µM |  |  |  |  |  |  |  |  |  |  | 1 to 3 µM | ≤ 10 µM |  |
| C[C@H](Cc1nncn1C)c1cccc(NC(=O)c2cc(C(=O)N3CCC4(COC4)C3)ccn2)c1 [Compound 233, N-[3-[(2R)-1-(4-methyl-4H-1,2,4-triazol-3-yl)propan-2-yl]phenyl]-4-[2-oxa-6-azaspiro[3.4]octane-6-carbonyl]pyridine-2-carboxamide] | 3 to 10 µM |  |  |  |  |  |  |  |  |  |  | 3 to 10 µM | ≤ 10 µM |  |
| C[C@H](Cc1nncn1C)c1cccc(NC(=O)c2cc(C(=O)N3CC[C@@H](C#N)C3)ccn2)c1 [Compound 238, 4-((R)-3-cyanopyrrolidine-1-carbonyl)-N-(3-((R)-1-(4-methyl-4H-1,2,4-triazol-3-yl)propan-2-yl)phenyl)picolinamide] | 1 to 3 µM |  |  |  |  |  |  |  |  |  |  | 1 to 3 µM | ≤ 10 µM |  |
| C=CCC(Sc1nncn1C)c1cccc(NC(=O)c2ccc3ccccc3n2)c1 (stereo not shown) [Compound 134, N-[3-[1-[(4-methyl-1,2,4-triazol-3-yl)sulfanyl]but-3-enyl]phenyl]quinoline-2-carboxamide] | > 10 µM |  |  |  |  |  |  |  |  |  |  | 1 to 3 µM | ≤ 10 µM | 1 to 3 µM |
| C[C@H](Sc1nncn1C)c1cccc(NC(=O)c2nc(C(F)(F)F)cs2)c1 [Compound 74, N-[3-[(1 S)-1-[(4-methyl-1,2,4-triazol-3-yl)sulfanyl]ethyl]phenyl]-4-(trifluoromethyl)thiazole-2-carboxamide] | 1 to 3 µM |  |  |  |  |  |  |  |  |  |  | 0.301 to 1 µM | ≤ 1 µM |  |
| C[C@@H](Cc1nncn1C)c1cccc(NC(=O)c2cc3cc(N4CCN(C)C(=O)C4)ccc3cn2)c1 [Compound 210, (S)-6-(4-methyl-3-oxopiperazin-1-yl)-N-(3-(1-(4-methyl-4H-1,2,4-triazol-3-yl)propan-2-yl)phenyl)isoquinoline-3-carboxamide 2,2,2-trifluoroacetate] | 3 to 10 µM |  |  |  |  |  |  |  |  |  |  | 3 to 10 µM | ≤ 10 µM |  |
